{"source": "ChEMBL document CHEMBL3872251", "about": "“Computational approach for the assessment of inhibitory potency against beta-amyloid aggregation” (Bioorg Med Chem Lett, 2017)"}
{"organism": "Homo sapiens", "assay": "Inhibition of amyloid beta (17 to 42) (unknown origin) aggregation at 10 uM by thioflavin T-based fluorimetric assay", "units": {"inhibition": "%"}}
{"smiles": "O=C1c2ccccc2C(=O)N1CCCCCNCc1ccccc1", "inhibition": 10}
{"smiles": "O=C1c2ccccc2C(=O)N1CCCNC1CCN(Cc2ccccc2)CC1", "inhibition": 10}
{"smiles": "CCN(CC)CCCCCCCN1C(=O)c2ccccc2C1=O", "inhibition": 39.4}
{"smiles": "CCN(CC)CCCCCCN1C(=O)c2ccccc2C1=O", "inhibition": 0}
{"smiles": "c1ccc(CN2CCC(NCCCCCCn3ccc4ccccc43)CC2)cc1", "inhibition": 56}
{"tested_on": "not listed separately", "assay": "Inhibition of Tg2576 mouse amyloid beta40 aggregation measured after 3 days by ELISA", "units": {"IC50": "nM"}}
{"smiles": "COc1cc(/C=C/C(=O)CC(=O)/C=C/c2ccc(O)c(OC)c2)ccc1O", "note": "[CURCUMIN]", "IC50": 1000}
